Assays:
GRP78 [1] = experiment: GRP78 protein level by western blot in cell lines, unstressed or thapsigargin-stressed (Example 1); assay type: cell-based, human; details: IT-139 200 μM, 16 hours
Procedure: Example 1. All human primary and metastatic cell lines were maintained as described by ATCC. Cells were seeded in a 6 well plate prior to treatment with media alone (control), IT-139 (200 μM) alone, thapsigargin alone (300 nM, to induce cell stress) or IT-139 plus thapsigargin. Cell lysates were collected at 16 hours and were analyzed by western blot for anti-GRP78 antibody and normalized by GAPDH.

GRP78 mRNA [2] = experiment: Quantitative real-time PCR of GRP78 transcripts in cell lines (Example 2); assay type: cell-based, human; details: IT-139 200 μM, 24 hours
Procedure: Example 2. All human primary and metastatic cell lines were maintained as described by ATCC. Cells were seeded in a 6 well plate prior to treatment with media alone (control), IT-139 (200 μM) alone, thapsigargin alone (300 nM, to induce cell stress) or IT-139 plus thapsigargin. Cell lysates were collected at 24 hours and total RNA was extracted. Quantitative real-time PCR analysis of GRP78 transcripts normalized to GAPDH.

CT26 cells = experiment: CT26 subcutaneous syngeneic tumor model (Example 3); assay type: in vivo, mice; details: twice weekly, four doses; IT-139 30 mg/kg intravenously, RPM1-14 5 mg/kg intraperitoneally; through day 18
Procedure: Example 3. CT26 cells (1 million) were subcutaneously implanted in immunocompetent mice and allowed to grow until a palpable tumor was established (day 3). Groups of four mice per group were treated twice weekly with four total doses of either 1) saline, 2) IT-139 alone (KP1339, 30 mg/kg), 3) RPM1-14 (PD-1 antibody, 5 mg/kg), or 4) RPM1-14 and IT-139 (5 mg/kg and 30 mg/kg, respectively). IT-139 was administered intravenously and RPM1-14 was administered intraperitoneally. Administrations were made on the same day. Tumor volume was measured through day 18.

HCT116 cells = experiment: Electron microscopic evaluation of HCT116 cells (Example 4); assay type: cell-based, human; details: IT-139 200 μM, 24 hours, versus untreated cells
Procedure: Example 4. HCT116 cell line was seeded one day prior to treatment according to ATCC guidelines. 24 hours after treatment with IT-139 (200 μM), treated and untreated cells were fixed for electron microscopic evaluation.

Pol II promoter = experiment: ChIP assay, Polymerase II binding to Pol II promoter in HCT116 cells (Example 5); assay type: cell-based, human; details: 200 μM IT-139, 16 hours
Procedure: (§1) Example 5. Chromatin immunoprecipitation (ChIP) assay was performed to examine Polymerase II binding to Pol II and GRP78 promoter regions in stressed and unstressed cells with IT-139 treatment. HCT116 cells were grown to 80% confluence then treated with 1.5 μg/mL tunicamycin and 200 μM IT-139 or DMSO for 16 hours. Chromatin was cross-linked using formaldehyde. Cells were harvested with trypsin and isolated nuclei were sonicated to yield fragments between 200-1000 bp. Equal amounts of chromatin were incubated with anti-Pol II antibody overnight then pulled down with Staph A cells. Cross-linking was reversed and the DNA was purified using a GeneElute PCR cleanup kit from Sigma. Purified DNA and input samples were subjected to 30 cycles of PCR with primers amplifying promoter regions of Grp78 and Pol II. The products were run on a 4% agarose gel and visualized with ethidium bromide staining. […] Strikingly, IT-139 dropped Polymerase II binding to the Grp78 promoter to zero in both non-stressed and Tu-stressed cells.

Grp78 promoter = experiment: ChIP assay, Polymerase II binding to Grp78 promoter in HCT116 cells (Example 5); assay type: cell-based, human; details: 200 μM IT-139, 16 hours
Procedure: as §1

GRP78 [3] = experiment: Immunohistochemical analysis of GRP78 in HT-29 xenograft tumors (Example 6); assay type: in vivo; details: IT-139 30 mg/kg (q4d), versus strong immunostaining in saline treated tumors
Procedure: Example 6. Immunohistochemical analysis was performed to analyze the expression of GRP78 in HT-29 xenograft tumors treated with IT-139 at 30 mg/kg (q4d) in comparison to saline treated tumors.

GRP78 [4] = experiment: GRP78 levels by western blot in normal embryonic kidney 293T cells (Example 7); assay type: cell-based, human
Procedure: Example 7. Normal human embryonic kidney 293T cells were either non-stressed (treated with normal media) or stressed (treated with 300 nM EndRet stress & GRP78 inducer Thapsigargin). Cell cultures were either treated with no drug (control) or 200 μM IT-139. GRP78 levels assayed by western blot; β-actin is loading control.

GRP78 mRNA [5] = experiment: Northern blot of GRP78 mRNA in LnCaP-FGC cells (Example 8); assay type: cell-based, human; details: untreated or 300 nM thapsigargin, indicated concentrations of IT-139
Procedure: Example 8. Prostate cancer LnCaP-FGC cells were untreated (DMSO only control) or treated with 300 nM thapsigargin (Tg). Cells were co-incubated with the indicated concentrations of IT-139 and Northern blot analysis was performed on cell lysates. β-actin is the loading control.

HCT116 = experiment: Mitochondrial potential, JC-1 flow cytometry, HCT116 (Example 9); assay type: cell-based, human; details: HCT116, 50 μM IT-139, 24 h
Procedure: (§2) Example 9. All human primary and metastatic cell lines were maintained as described by ATCC. All cell lines (HCT116, HT-29, LNCaP, A549 and A375) were seeded in a 6 well plate 24 hours prior to treatment with IT-139 alone. All cell lines were treated with 30 uM, 50 uM, 100 uM and 200 uM with the following exceptions: treatment with 30 uM and 200 uM were omitted for HCT116 and HT29 cell lines respectively. After 24 h incubation with the drug, cells were trypsinized and re-suspended in warm PBS and stained with the JC-1 dye for 30 min at 37 C in the dark. The cells were then washed and re-suspended in warm PBS. The fluorescence of the JC-1 dye was measured by flow cytometry analysis by exciting the dye at 488 nm and detecting the JC-1 monomer through its emission at 530 nm with aggregates of JC-1 being measured at 580 nm. All cell lines treated with Antimycin A at 50 uM as positive control.

HT29 = experiment: Mitochondrial potential, JC-1 flow cytometry, HT29 (Example 9); assay type: cell-based, human; details: HT29, 30 μM IT-139, 24 h
Procedure: as §2

LNCaP = experiment: Mitochondrial potential, JC-1 flow cytometry, LNCaP (Example 9); assay type: cell-based, human; details: prostate (LNCaP), 30-200 uM IT-139, 24 h
Procedure: as §2

A549 = experiment: Mitochondrial potential, JC-1 flow cytometry, A549 (Example 9); assay type: cell-based, human; details: lung (A549), 30-200 uM IT-139, 24 h
Procedure: as §2

A375 = experiment: Mitochondrial potential, JC-1 flow cytometry, A375 (Example 9); assay type: cell-based, human; details: melanoma (A375), 30-200 uM IT-139, 24 h
Procedure: as §2

[6] = test system: normal peripheral blood mononuclear cells (PBMCs); experiment: Cell viability, MiaPaca2 cells co-cultured with normal PBMCs (Example 10); assay type: cell-based; details: IT-139 50, 100 and 200 μM, 24 h, co-culture with normal PBMCs
Procedure: Example 10. […] cancer cell line, MiaPaca2, was maintained as described by ATCC. […] […] PBMCs were activated using 6000 IU of IL-2 for 24 h.

MiaPaca2 cells = experiment: Cell death of MiaPaca2 cells co-cultured with IL-2 activated PBMCs (Example 10); assay type: cell-based; details: pre-treated with IT-139 100 μM, co-cultured with PBMCs activated with 6000 IU IL-2 for 24 h
Procedure: Example 10. […] cancer cell line, MiaPaca2, was maintained as described by ATCC. […] MiaPaca2 cells were either untreated or pre-treated with IT-139 (100 μM) and co-cultured with IL-2 activated PBMCs at varying doses. PBMCs were activated using 6000 IU of IL-2 for 24 h.

GRP78 [7] = experiment: GRP78 expression in ASPC20 cells, order of dosing thapsigargin and IT-139 (Example 11); assay type: cell-based; details: 30 hours
Procedure: FIG. 12 depicts expression of GRP78 protein levels treated with DMSO; 150 μM IT-139; 1 μM Thapsigargin (Tg); simultaneous treatment of 150 μM IT-139 and 1 μM Tg; 1 μM Tg treated for 6 hours followed by 150 μM IT-139 for 24 hours; and […] IT-139 for 24 hours followed by […] Tg treatment for 24 hours for lanes 1-5, respectively. Lanes 6-12 are the same treatments incubated for a further 24 hours.
Example 11. […] In vitro ASPC20 cells are treated for 48 hours with DMSO (control), 150 μM IT-139, 5 μM gemcitabine, simultaneous 150 μM IT-139 and 5 μM gemcitabine, 5 μM gemcitabine for 24 hours followed by 150 μM IT-139, or 150 μM IT-139 followed by 24 hrs 5 μM gemcitabine. Cells are harvested and counted by trypan blue to calculate the number of dead cells versus viable cells. […] PANC-1 cells are treated in vitro for 48 hours with DMSO (control), 150 μM IT-139, 5 μM gemcitabine, simultaneous 150 μM IT-139 and 5 μM gemcitabine, 5 μM gemcitabine for 24 hours followed by 150 μM IT-139, and 150 μM IT-139 followed by 24 hours 5 μM gemcitabine.

[8] = test system: UPR (XBP-1 spliced form, ATF6, eIF2a); experiment: Effect on other arms of the UPR; assay type: cell-based
[9] = test system: GRP78 promoter fragment (−169 to −29; contains 3 ERSEs); experiment: GRP78 promoter fragment luciferase reporter; assay type: cell-based
tumor types = experiment: Preclinical anti-tumor and combination studies
[10] = stressed cells (thapsigargin 300 nM)
[11] = Tu-stressed HCT116 cells (1.5 μg/mL tunicamycin)

[Cl][Ru-]([Cl])([Cl])[Cl].[Na+].c1ccc2[nH]ncc2c1.c1ccc2[nH]ncc2c1 [IT-139, sodium trans-[tetrachlorobis(1H-indazole)ruthenate(III)]]
effect on GRP78 protein (western blot, normalized by GAPDH) (GRP78 [1]; [10]): decreased the amount of GRP78
effect on GRP78 protein (western blot, normalized by GAPDH) (GRP78 [1]; unstressed cells): little to no effect
effect on GRP78 mRNA expression (qRT-PCR, normalized to GAPDH) (GRP78 mRNA [2]; [10]): decreased the amount of GRP78 mRNA expression
effect on grp78 mRNA levels (qRT-PCR, normalized to GAPDH) (GRP78 mRNA [2]; unstressed cells): little impact
anti-tumor activity (tumor volume) (CT26 cells): demonstrated anti-tumor activity
cell morphology by electron microscopy (HCT116 cells): significant vacuolization, ER expansion and disorganization of intracellular organelles
Polymerase II binding to the Pol II promoter, reduced to (Pol II promoter; [11]): 40%
Polymerase II binding to the Pol II promoter (Pol II promoter; non-stressed HCT116 cells): minimal effect
Polymerase II binding to the Grp78 promoter, dropped to (Grp78 promoter; [11]): zero
Polymerase II binding to the Grp78 promoter, dropped to (Grp78 promoter; non-stressed HCT116 cells): zero
GRP78 immunostaining of tumors (GRP78 [3]): very weak staining
effect on basal GRP78 levels (GRP78 [4]; non-stressed normal cells): does not effect the basal GRP78 levels
effect on GRP78 up-regulation due to stress (GRP78 [4]; stressed normal cells): does not effect GRP78 up-regulation due to stress
suppression of GRP78 at the transcriptional level (Northern blot, normalized against β-actin) (GRP78 mRNA [5]): dose dependent manner
mitochondrial potential (JC-1) (HCT116): increased loss of mitochondrial potential
mitochondrial potential (JC-1) (HT29): increased loss of mitochondrial potential
mitochondrial potential (JC-1) (LNCaP): increase in mitochondrial depolarization at high concentrations
mitochondrial potential (JC-1) (A549): increase in mitochondrial depolarization at high concentrations
mitochondrial potential (JC-1) (A375): increase in mitochondrial depolarization at high concentrations
cell viability [6]: did not show any effect upon cell viability
cell death in MiaPaca2 cells (MiaPaca2 cells): increased cell death
effect of order of dosing with thapsigargin (Tg) on GRP78 expression (GRP78 [7]): affects levels of GRP78 expression
effect on other arms of the UPR (induction XBP-1 spliced form; induction, processing and nuclear import of ATF6; phosphorylation of eIF2a) [8]: does not block other arms of the UPR
stress-induction of GRP78 promoter fragment linked to luciferase reporter gene [9]: suppress stress-induction
synergy in combination with other anti-cancer drugs (tumor types; all different classes of anti-cancer drugs tested to date): marked synergy
anti-tumor activity in preclinical studies (tumor types; including tumor types resistant to standard anti-cancer agents): activity against a broad range of tumor types

From patent publication US11633380B2, “Use of trans-[tetrachlorobis(1H-indazole)ruthenate(III)] for the treatment of cancer” (Bold Therapeutics, Inc., priority 2016, dated 2023)
